Key:
monocytes = experiment: Monocyte/macrophage differentiation and functional changes (RT-PCR or microarray analysis); assay type: cell-based, Rodent and human; details: for cell proliferation and maturation of monocytes: 10^-7 M cortisol, 10^-9 M aldosteron
Experimental: Rodent and human monocytes were studied during their differentiation process towards macrophages in the presence or absence of different, physiologically relevant levels of cortisol or corticosterone, as well as aldosterone, respectively.
Glucocorticoid receptor (GR) and mineralocorticoid receptor occupancy was modulated with either eplerenone or ZK91587 or canrenoate (as MR-antagonists) or RU486 (GR-antagonist). […] (dehydrocorticosterone in rodent cells) was added as a substrate for 11-beta-HSD1. Metyrapone was used to block 11-beta-HSD1 reductase activity. Inhibitors were added with 10^-7 M cortisol, 10^-9 M aldosteron concentration, HSD inhibitors were added in 10^-6 M concentration.
Monocytes were first stimulated with either lipopolysaccharide (LPS) or Tumor-necrosis-factor-alpha (TNF-apha), interferone-gamma (IFN-gamma), interleukin-13 (IL-13) or interleukin-4 (IL-4) before differentiation into macrophages in the presence of above different agonist/antagonist combinations. In order to evaluate the linkage between inflammation and metabolic disease, mature macrophages were also stimulated with fatty acids via the Toll-like-receptor 4.

[1] = test system: Vascular smooth muscle cells; experiment: GR or MR blockade and 11-beta-HSD-2 inhibition in vascular cells; assay type: cell-based; details: physiologically relevant levels of aldosterone
Experimental: Vascular smooth muscle cells were incubated with varying combinations of a MR or GR-antagonist and physiologically relevant levels of cortisol or aldosterone; importantly, adosterone and cortisol were also used in combination to mimic specific interactions between the ligand-receptor and co-factor recruitment as observed in vitro and in vivo.

[2] = biological target: T1, mineralocorticoid receptor (Homo sapiens, UniProt P08235); details: relative to aldosterone; cited from earlier work
T1 sequence (P08235 1-984): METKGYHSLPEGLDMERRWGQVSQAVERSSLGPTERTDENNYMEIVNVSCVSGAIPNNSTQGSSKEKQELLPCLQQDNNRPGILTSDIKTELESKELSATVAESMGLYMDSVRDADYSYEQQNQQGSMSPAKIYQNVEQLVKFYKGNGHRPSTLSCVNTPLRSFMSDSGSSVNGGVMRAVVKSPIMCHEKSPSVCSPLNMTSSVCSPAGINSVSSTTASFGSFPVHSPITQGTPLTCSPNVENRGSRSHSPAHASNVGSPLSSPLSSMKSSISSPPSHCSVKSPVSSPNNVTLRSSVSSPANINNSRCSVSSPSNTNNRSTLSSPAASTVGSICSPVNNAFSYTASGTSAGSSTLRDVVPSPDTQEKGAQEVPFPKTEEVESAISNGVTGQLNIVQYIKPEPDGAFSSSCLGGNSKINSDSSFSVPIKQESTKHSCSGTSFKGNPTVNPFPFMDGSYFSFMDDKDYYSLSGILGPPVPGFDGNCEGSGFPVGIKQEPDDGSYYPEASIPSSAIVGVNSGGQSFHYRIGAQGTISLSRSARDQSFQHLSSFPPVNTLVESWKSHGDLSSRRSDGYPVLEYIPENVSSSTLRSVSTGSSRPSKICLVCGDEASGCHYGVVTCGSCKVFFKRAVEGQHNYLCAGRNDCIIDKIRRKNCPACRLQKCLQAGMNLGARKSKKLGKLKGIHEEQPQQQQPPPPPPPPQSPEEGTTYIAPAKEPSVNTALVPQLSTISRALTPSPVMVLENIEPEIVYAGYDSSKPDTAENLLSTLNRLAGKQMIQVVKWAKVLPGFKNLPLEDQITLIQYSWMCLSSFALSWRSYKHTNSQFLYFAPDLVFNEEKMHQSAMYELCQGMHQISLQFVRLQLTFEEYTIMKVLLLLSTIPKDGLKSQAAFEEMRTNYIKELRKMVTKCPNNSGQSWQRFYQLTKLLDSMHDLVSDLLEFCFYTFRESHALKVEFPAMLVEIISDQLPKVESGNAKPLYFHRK

[3] = heart failure patients, normal or low aldosterone, added to ACE inhibitor, loop diuretic and digoxin; cited from earlier work

Row | Compound | cell proliferation and maturation of monocytes (monocytes) | vascular endothelial growth factor (VEGF) and ICAM-1 induction [1] | decrease of post-myocardial infarction morbidity and mortality rate [3] | other results
1 | C[C@]12CCC(=O)C=C1CC[C@@H]1[C@@H]2[C@@H](O)C[C@]2(C=O)[C@@H](C(=O)CO)CC[C@@H]12 [aldosterone] | induced cell proliferation and maturation of monocytes | induced vascular endothelial growth factor (VEGF) as well as ICAM-1 | – | macrophage phenotype (NfkappaB, RANK-ligand, interleukin-6, ROS, plasminogen activator inhibitor-1) (monocytes; induction with aldosterone): more proinflammatory macrophage phenotype
2 | C[C@]12CCC(=O)C=C1CC[C@@H]1[C@@H]2[C@@H](O)C[C@@]2(C)[C@H]1CC[C@]2(O)C(=O)CO [cortisol] | induced cell proliferation and maturation of monocytes | – | – | affinity to the mineralocorticoid receptor, higher than aldosterone [2]: 10-30 fold
3 | C[C@]12CCC(=O)C=C1CC[C@@H]1[C@@H]2C(=O)C[C@@]2(C)[C@H]1CC[C@]2(O)C(=O)CO [cortisone] | induced cell proliferation and maturation of monocytes | – | – | –
4 | COC(=O)[C@@H]1CC2=CC(=O)CC[C@]2(C)[C@@]23O[C@@H]2C[C@@]2(C)[C@@H](CC[C@@]24CCC(=O)O4)[C@H]13 [eplerenone] | – | reversed this effect | ~15% | –
5 | CC(C)(C(=O)c1cccnc1)c1cccnc1 [metyrapone] | – | – | – | effect on macrophage differentiation and function (monocytes; HSD inhibitors added in 10^-6 M concentration): the effects of aldosterone at the high affinitity MR were enhanced or were able to override glucocorticoid mediated effects
6 | CC(=O)S[C@@H]1CC2=CC(=O)CC[C@]2(C)[C@H]2CC[C@@]3(C)[C@@H](CC[C@@]34CCC(=O)O4)[C@H]12 [spironolactone] | – | – | about 30% | –
